Source: ChEMBL document CHEMBL4342498, “Design and Discovery of an Orally Efficacious Spiroindolinone-Based Tankyrase Inhibitor for the Treatment of Colon Cancer” (J Med Chem, 2020)
The source made the active and inactive calls. The rule behind the calls is not given here.

What was measured:
Mus musculus [1] = assay: (§1) In vivo inhibition of TNSK/TNSK2-medited WNT/beta-catenin signaling in human COLO320DM cells xenografted Prkdc-NOD-SCID CB17 mouse assessed as upregulation of AXIN2 expression in tumor cytosolic extract at 10 to 20 mg/kg, ip administered twice daily for 5 days followed by 2 days interval for 2 cycles measured 4 hrs post-last dose by Western blot analysis; assay type: functional, organism-based
[2] = AUC (infinity) in Sprague-Dawley rat at 3 mg/kg, po; assay type: ADME, organism-based; parameters: dose 3 mg/kg, time infinity, route oral; conditions: in vivo
[3] = AUC (infinity) in ICR mouse at 20 mg/kg, ip; assay type: ADME, organism-based; parameters: dose 20 mg/kg, route intraperitoneal, time infinity; conditions: in vivo
[4] = Dose normalized AUC (infinity) in Sprague-Dawley rat at 1 mg/kg, iv; assay type: ADME, organism-based; conditions: in vivo
Mus musculus [5] = assay: as §1, with “reduction in total beta catenin” for “upregulation of AXIN2”, “nuclear” for “cytosolic”; assay type: functional, organism-based
[6] = Oral bioavailability in Sprague-Dawley rat at 3 mg/kg; assay type: ADME, organism-based; conditions: in vivo
[7] = Half life in Sprague-Dawley rat at 3 mg/kg, iv; assay type: ADME, organism-based; conditions: in vivo
[8] = Cmax in ICR mouse at 20 mg/kg, po; assay type: ADME, organism-based; parameters: dose 20 mg/kg, route oral; conditions: in vivo
COLO 320DM [9] = assay: Antiproliferative activity against human COLO320DM cells assessed inhibition of cell growth measured after 5 days by MTT assay; assay type: functional; conditions: 120 h
Mus musculus [10] = assay: as §1, with “reduction in active-beta catenin” for “upregulation of AXIN2”, “nuclear” for “cytosolic”, “po” for “ip”; assay type: functional, organism-based
[11] = target: Tankyrase 1/2 (Homo sapiens) (UniProt Q9H2K2+O95271); assay: Inhibition of TNKS/TNKS2-mediated WNT/beta-catenin signaling pathway in human COLO320DM cells assessed as upregulation of AXIN2 expression at 0.1 uM measured after 16 hrs by Western blot analysis relative to control; assay type: cell-based
Chain of Tankyrase 1/2 (Homo sapiens) (O95271 whole entry, looked up): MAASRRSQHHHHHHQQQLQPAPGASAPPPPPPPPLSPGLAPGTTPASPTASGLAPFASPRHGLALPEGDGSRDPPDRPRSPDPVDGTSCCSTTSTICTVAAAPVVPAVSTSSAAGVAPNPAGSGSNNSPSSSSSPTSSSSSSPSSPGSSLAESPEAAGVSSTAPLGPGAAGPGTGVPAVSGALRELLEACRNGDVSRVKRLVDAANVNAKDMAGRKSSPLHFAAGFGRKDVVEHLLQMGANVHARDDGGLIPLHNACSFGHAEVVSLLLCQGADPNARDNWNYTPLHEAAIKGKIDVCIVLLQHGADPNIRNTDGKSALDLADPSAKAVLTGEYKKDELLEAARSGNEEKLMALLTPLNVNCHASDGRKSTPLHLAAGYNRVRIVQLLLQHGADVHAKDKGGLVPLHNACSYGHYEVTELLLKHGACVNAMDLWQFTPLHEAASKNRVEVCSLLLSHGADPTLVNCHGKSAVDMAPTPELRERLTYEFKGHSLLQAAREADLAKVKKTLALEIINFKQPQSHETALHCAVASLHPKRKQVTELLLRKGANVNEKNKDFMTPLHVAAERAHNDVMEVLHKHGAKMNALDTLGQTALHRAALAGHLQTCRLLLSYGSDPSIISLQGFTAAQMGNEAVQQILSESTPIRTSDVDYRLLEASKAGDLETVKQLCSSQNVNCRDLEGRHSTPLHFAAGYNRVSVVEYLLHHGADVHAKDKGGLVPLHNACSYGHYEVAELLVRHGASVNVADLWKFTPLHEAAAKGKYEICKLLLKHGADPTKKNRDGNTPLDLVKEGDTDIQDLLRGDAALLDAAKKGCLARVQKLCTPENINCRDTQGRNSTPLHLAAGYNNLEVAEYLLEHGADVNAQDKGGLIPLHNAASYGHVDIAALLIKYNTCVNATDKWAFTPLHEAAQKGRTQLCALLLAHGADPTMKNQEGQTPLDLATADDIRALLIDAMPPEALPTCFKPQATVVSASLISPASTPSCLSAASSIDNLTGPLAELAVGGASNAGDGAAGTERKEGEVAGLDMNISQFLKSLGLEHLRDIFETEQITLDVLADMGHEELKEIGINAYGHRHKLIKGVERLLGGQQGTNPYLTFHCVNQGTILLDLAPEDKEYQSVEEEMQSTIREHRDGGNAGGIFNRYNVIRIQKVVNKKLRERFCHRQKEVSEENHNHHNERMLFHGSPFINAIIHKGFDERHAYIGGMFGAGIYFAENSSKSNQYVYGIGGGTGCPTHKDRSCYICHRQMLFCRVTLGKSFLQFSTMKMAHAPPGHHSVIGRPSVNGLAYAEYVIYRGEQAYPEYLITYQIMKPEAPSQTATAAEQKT
Chain of Tankyrase 1/2 (Homo sapiens) (Q9H2K2 whole entry, looked up): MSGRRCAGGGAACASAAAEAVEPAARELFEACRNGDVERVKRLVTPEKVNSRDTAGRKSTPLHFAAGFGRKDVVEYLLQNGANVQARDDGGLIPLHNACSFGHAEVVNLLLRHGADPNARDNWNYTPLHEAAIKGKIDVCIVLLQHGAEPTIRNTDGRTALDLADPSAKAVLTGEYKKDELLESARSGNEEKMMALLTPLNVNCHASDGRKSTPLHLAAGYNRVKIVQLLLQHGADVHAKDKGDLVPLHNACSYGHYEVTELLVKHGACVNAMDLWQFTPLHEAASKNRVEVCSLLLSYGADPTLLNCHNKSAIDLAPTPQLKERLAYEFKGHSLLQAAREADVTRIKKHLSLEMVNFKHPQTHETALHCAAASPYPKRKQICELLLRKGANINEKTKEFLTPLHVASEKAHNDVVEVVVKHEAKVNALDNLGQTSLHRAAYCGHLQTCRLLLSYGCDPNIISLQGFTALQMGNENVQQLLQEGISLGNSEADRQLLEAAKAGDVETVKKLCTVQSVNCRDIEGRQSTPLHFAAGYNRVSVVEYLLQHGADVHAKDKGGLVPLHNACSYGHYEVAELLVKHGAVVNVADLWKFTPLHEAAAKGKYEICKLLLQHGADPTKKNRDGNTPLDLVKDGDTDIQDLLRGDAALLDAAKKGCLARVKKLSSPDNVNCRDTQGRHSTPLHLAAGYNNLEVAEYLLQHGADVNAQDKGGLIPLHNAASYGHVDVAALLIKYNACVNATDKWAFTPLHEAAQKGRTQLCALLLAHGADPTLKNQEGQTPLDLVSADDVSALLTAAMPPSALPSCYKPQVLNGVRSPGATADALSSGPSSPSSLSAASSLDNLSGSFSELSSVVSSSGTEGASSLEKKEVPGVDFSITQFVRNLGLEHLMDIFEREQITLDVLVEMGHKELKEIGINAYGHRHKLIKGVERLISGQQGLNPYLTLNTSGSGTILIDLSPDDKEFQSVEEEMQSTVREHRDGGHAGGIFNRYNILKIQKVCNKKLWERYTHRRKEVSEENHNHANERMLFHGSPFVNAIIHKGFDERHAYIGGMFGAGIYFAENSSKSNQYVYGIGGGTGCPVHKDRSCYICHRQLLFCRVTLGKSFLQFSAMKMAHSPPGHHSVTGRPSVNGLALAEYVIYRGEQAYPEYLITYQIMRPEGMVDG

[12] = Plasma concentration in ICR mouse at 20 mg/kg, po measured after 4 hrs; assay type: ADME, organism-based
COLO 320DM [13] = assay: Antitumor activity against human COLO320DM cells xenografted in Prkdc-NOD-SCID CB17 mouse assessed as tumor growth inhibition at 20 mg/kg, ip administered twice daily for 5 days followed by 2 days interval for 2 cycles relative to control; assay type: functional; conditions: read-out: TGI
COLO 320DM [14] = assay: Antitumor activity against human COLO320DM cells xenografted in Prkdc-NOD-SCID CB17 mouse assessed as tumor growth inhibition at 10 mg/kg, ip administered twice daily for 5 days followed by 2 days interval for 2 cycles relative to control; assay type: functional; conditions: read-out: TGI

- AUC(0-inf) [2]: 33 µM·h
- Ratio IC50 (Homo sapiens): 504
- AUC(0-inf) [3]: 266 µM·h
- AUC/dose [4]: 10.49 µmol·h/L
- bioavailability [6]: 100%
- half-life [7]: 3.61 h
- Cmax [8]: 76.6 µM
- GI50 (COLO 320DM [9]): 0.035 µM
- fold change (FC) [11]: 5.23
- concentration at 4 h [12]: 26.9 µM
SMILES: C[C@@H]1CN(c2cc(F)c3c(c2)N(C)C(=O)C32CCN(c3nc4c(c(=O)[nH]3)CCCN4C)CC2)C[C@H](C)O1
- inhibition (Mus musculus [1]): Active
- inhibition (Mus musculus [5]): inactive
- inhibition (Mus musculus [10]): Active
- inhibition in vivo at 20 mg/kg (COLO 320DM [13]): 71.1%
- inhibition in vivo at 10 mg/kg (COLO 320DM [14]): 68.8%
